One may read the IC50 as the concentration needed to halve the response being measured. Low values mean higher potency, high ones lower potency. For orientation: EC50 means the concentration at which the effect is half-maximal. Low values mean an effect from little substance, high ones a need for much substance.

One assay concerns the target T1, 15-PGDH/HPGD (Homo sapiens, UniProt P15428).
T1 construct: purchased R&D System 5660-DH
T1 sequence (P15428 1-266): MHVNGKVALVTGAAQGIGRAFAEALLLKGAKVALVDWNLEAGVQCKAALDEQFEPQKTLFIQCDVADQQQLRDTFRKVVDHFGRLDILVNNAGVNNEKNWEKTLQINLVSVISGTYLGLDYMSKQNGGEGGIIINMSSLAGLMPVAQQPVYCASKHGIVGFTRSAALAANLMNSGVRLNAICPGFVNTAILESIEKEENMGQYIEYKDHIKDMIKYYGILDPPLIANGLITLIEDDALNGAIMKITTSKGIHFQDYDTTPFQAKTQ
Kind of assay: hPGDH inhibitor screening biochemical assay. The following applies: 10 nM enzyme, 15 μM Prostaglandin E2, 0.25 mM NAD, fluorescence ex/em 340/485 nm. As for the experimental part:
A hydroxyprostaglandin dehydrogenase inhibition screening biochemical assay can be performed to assess the synthesized inhibitors provided herein. Provided herein is an exemplary biochemical assay for hPGDH inhibitor screening.
The in vitro biochemical assay can be performed in white, 384 plates in total 20 μl reaction volume consisting of 10 nM of 15-PGDH/HPGD (R&D System #5660-DH), 15 μM Prostaglandin E2 (Sigma, Cat #P5640-10 MG) and 0.25 mM B-Nicotinamide adenine dinucleotide sodium salt (Sigma, Cat #N0632-5G) made in reaction buffer (50 mM Tris-HCl, pH 7.5, 0.01% Tween 20) at 10-point dose response curve for test/tool compounds. Briefly, 5 μl (4×) of compounds solution and 5 μl (final concentration, 10 nM) of enzyme solution is added to white 384 well plates and incubated for 10 mins at 37° C. 5 μl (4×) of Prostaglandin E2 and 5 μl (4×) of β-Nicotinamide adenine dinucleotide sodium salt is added to the wells and incubated for 10 mins at room temperature. Fluorescence is recorded at ex/em=340 nm/485 nm.

The next assay relates to A549. Nature of the assay: A549 EC50 (cell assay, method not described). It counts as cell-based.

As for `O=C(O)c1ccc(-n2ncc3cc([C@@H](O)C4(OCC(F)F)CC4)cnc32)cc1` [Compound 72B], the IC50 on 15-PGDH/HPGD is at least 1000 nM. This compound also had an EC50 with A549 (Homo sapiens, A549, A549) of at least 1000 nM.
As to `CC(C)OCC(O)c1cnc2c(cnn2-c2ccc(CCC(=O)O)c(F)c2)c1` (stereo in doubt) [Compound 70B, (S)-3-(2-fluoro-4-(5-(1-hydroxy-2-isopropoxyethyl)-1H-pyrazolo[3,4-b]pyridin-1-yl)phenyl) propanoic acid], the IC50 on 15-PGDH/HPGD was below 100 nM. This compound displayed an EC50 with A549 (Homo sapiens, A549, A549) of 100 to 1000 nM.
For `O=C(O)c1ccc(-n2ccc3nc([C@@H](O)C4CC(F)(F)C4)cnc32)cc1` [Compound 46B] the same measures were below 100 nM and 100 to 1000 nM.
For `CSc1cccc(-n2ncc3cc([C@H](O)COC4CCC4)cnc32)c1` [Compound 122B] the same measures were at least 1000 nM and at least 1000 nM.
In the same order, the values of `COC1([C@H](O)c2cnc3c(cnn3-c3cccc(-c4nnc[nH]4)c3)c2)CC1` [Compound 59B] are 100 to 1000 nM and at least 1000 nM.
In turn, `O[C@H](COC1CC1)c1cnc2c(cnn2-c2cccc(-c3nnc[nH]3)c2)c1` [Compound 37B] had an IC50 against 15-PGDH/HPGD below 100 nM. The EC50 in the assay on A549 (Homo sapiens, A549, A549) was below 100 nM.
`CCCC[C@H](O)c1cnc2c(ccn2-c2cccc(-c3nnc[nH]3)c2)n1` [Compound 2A] returned an IC50 against 15-PGDH/HPGD below 100 nM. The compound further returned an EC50 in the assay with A549 (Homo sapiens, A549, A549) below 100 nM.
As to `CCCC(F)(F)[C@@H](O)c1cnc2c(ccn2-c2cccc(-c3nnc[nH]3)c2)c1` [Compound 4A], the IC50 at 15-PGDH/HPGD was below 100 nM. The same compound yielded an EC50 with A549 (Homo sapiens, A549, A549) of 100 to 1000 nM.
For `CC(C)(O)[C@@H](O)c1cnc2c(cnn2-c2cccc(-c3nnc[nH]3)c2)c1` [Compound 33B, (S)-1-(1-(3-(4H-1,2,4-triazol-3-yl)phenyl)-1H-pyrazolo[3,4-b]pyridin-5-yl)-2-methylpropane-1,2-diol] the same measures were 100 to 1000 nM and at least 1000 nM.
In turn, `O[C@@H](COC1CCC1)c1cnc2c(cnn2-c2ccc(N3CCCC3)cc2)c1` [Compound 75B] displayed an IC50 at 15-PGDH/HPGD of at least 1000 nM. Moreover, the EC50 in the assay on A549 (Homo sapiens, A549, A549) is at least 1000 nM.
As for `O=C(O)c1ccc(-n2ncc3cc([C@H](O)COC4CCC4)cnc32)cn1` [Compound 96A], the IC50 against 15-PGDH/HPGD was below 100 nM. In the assay with A549 (Homo sapiens, A549, A549), this compound had an EC50 of at least 1000 nM.
For `CCCC(F)(F)[C@H](O)c1cnc2c(ccn2-c2cccc(-c3nnc[nH]3)c2)c1` [Compound 4B] the same measures were below 100 nM and below 100 nM.
For `Cc1nn(-c2ccc(C(=O)O)cc2)c2ncc([C@@H](O)COC3CCC3)cc12` [Compound 109A] the same measures were below 100 nM and at least 1000 nM.
Take `O=C(O)c1ccc(-n2ncc3cc([C@@H](O)COC4CCC4)cnc32)cc1F` [Compound 94A]: the IC50 against 15-PGDH/HPGD is below 100 nM. In the assay with A549 (Homo sapiens, A549, A549), the EC50 was below 100 nM.
`O[C@@H](c1cnc2c(cnn2-c2cccc(-c3nnc[nH]3)c2)c1)[C@H]1CCOC1` [Compound 68C]: at 15-PGDH/HPGD, the IC50 is below 100 nM. Also, the EC50 with A549 (Homo sapiens, A549, A549) was below 100 nM.
`COCCNC(=O)c1ccc(-n2ncc3cc([C@H](O)COC4CCC4)cnc32)cc1` [Compound 118B] came in with a half-maximal inhibitory concentration (IC50) at 15-PGDH/HPGD of 100 to 1000 nM. The EC50 in the assay on A549 (Homo sapiens, A549, A549) was in the range of 100 to 1000 nM.
`O=C(O)c1ccc(-n2ncc3cc([C@@H](O)COC4(C(F)(F)F)CCC4)cnc32)cc1` [Compound 115A]: the IC50 at 15-PGDH/HPGD is below 100 nM. Further, in the assay on A549 (Homo sapiens, A549, A549), the EC50 was in the range of 100 to 1000 nM.
`O=C(NC[C@H](O)c1cnc2c(cnn2-c2cccc(-c3nnc[nH]3)c2)c1)C1CC1` [Compound 39A] came in with an IC50 on 15-PGDH/HPGD of at least 1000 nM. The compound also came in with an EC50 in the assay on A549 (Homo sapiens, A549, A549) of at least 1000 nM.
The compound `O=C(O)CCc1ccc(-n2ncc3cc([C@@H](O)COC4CC4)cnc32)cc1F` [Compound 86A] gave an IC50 against 15-PGDH/HPGD below 100 nM. The compound further returned an EC50 in the assay with A549 (Homo sapiens, A549, A549) below 100 nM.
Turning to `CCOC1([C@@H](O)c2cnc3c(cnn3-c3ccc(C(=O)O)cc3)c2)CC1` [Compound 58B], the IC50 against 15-PGDH/HPGD was below 100 nM. This compound yielded an EC50 in the assay with A549 (Homo sapiens, A549, A549) of 100 to 1000 nM.
In the same order, the values of `CC1(C)CC(OC[C@H](O)c2cnc3c(cnn3-c3ccc(C(=O)O)nc3)c2)C1` [Compound 116A] are 100 to 1000 nM and at least 1000 nM.
For `O=C(O)c1ccc(-n2ncc3cc([C@@H](O)COCC4CC4)ccc32)cc1` [Compound 114A] the same measures were 100 to 1000 nM and at least 1000 nM.
For `C[C@H]1C[C@H](OC[C@@H](O)c2cnc3c(cnn3-c3ccc(C(=O)O)cc3)c2)C1` [Compound 127D] the same measures were below 100 nM and below 100 nM.
With `C[C@H]1C[C@@H](OC[C@H](O)c2cnc3c(cnn3-c3ccc(C(=O)O)cc3)c2)C1` [Compound 127A], the IC50 at 15-PGDH/HPGD was below 100 nM. The compound also gave an EC50 in the assay on A549 (Homo sapiens, A549, A549) of at least 1000 nM.
In the same order, the values of `CN(C)C(=O)c1cccc(-n2ncc3cc([C@@H](O)COC4CCC4)cnc32)c1` [Compound 111A] are below 100 nM and 100 to 1000 nM.
`O[C@H](COC1CCC1)c1cnc2c(cnn2-c2cncc(-c3nnc[nH]3)c2)c1` [Compound 117B]: on 15-PGDH/HPGD, the IC50 was below 100 nM. The EC50 in the assay on A549 (Homo sapiens, A549, A549) is below 100 nM.
For the compound `CN(C)C(=O)c1ccc(-n2ncc3cc([C@@H](O)COC4CCC4)cnc32)cc1` [Compound 80B], at 15-PGDH/HPGD, the IC50 is at least 1000 nM. The compound further gave an EC50 in the assay with A549 (Homo sapiens, A549, A549) of at least 1000 nM.
As for `CC(C)OC[C@@H](O)c1cnc2c(cnn2-c2ccc(CCCC(=O)O)cc2)c1` [Compound 66A], the IC50 against 15-PGDH/HPGD is below 100 nM. Further, the EC50 in the assay on A549 (Homo sapiens, A549, A549) is below 100 nM.
On to `C[C@H]1C[C@H](OC[C@H](O)c2cnc3c(cnn3-c3ccc(C(=O)O)cc3)c2)C1` [Compound 127C], for which, on 15-PGDH/HPGD, the 50% inhibitory concentration (IC50) is 100 to 1000 nM. Further, in the assay with A549 (Homo sapiens, A549, A549), the EC50 was at least 1000 nM.
For `CCCC[C@@H](O)c1cnc2c(ccn2-c2cc(Cl)cc(-c3nnc[nH]3)c2)c1` [Compound 17A] the same measures were below 100 nM and below 100 nM.
In the same order, the values of `CC(C)CC[C@@H](O)c1cnc2c(ccn2-c2ccc(C(=O)O)cc2)n1` [Compound 40B] are below 100 nM and below 100 nM.
In the same order, the values of `O[C@H](c1cnc2c(ccn2-c2cccc(-c3nnc[nH]3)c2)c1)C1CCC1` [Compound 10A] are below 100 nM and below 100 nM.
At 15-PGDH/HPGD, `C[C@H]1C[C@@H](OC[C@@H](O)c2cnc3c(cnn3-c3ccc(C(=O)O)cc3)c2)C1` [Compound 127B] came in with an IC50 below 100 nM. In the assay with A549 (Homo sapiens, A549, A549), the EC50 is below 100 nM.
On 15-PGDH/HPGD, `O=C(O)c1ccc(-n2ncc3cc([C@H](O)C4COC4)ccc32)cc1` [Compound 120A] registered an IC50 below 100 nM. The same compound registered an EC50 in the assay with A549 (Homo sapiens, A549, A549) of 100 to 1000 nM.
For `CC(C)OC[C@@H](O)c1cnc2c(cnn2-c2ccc(C(=O)O)cc2)c1` [Compound 48B] the same measures were below 100 nM and below 100 nM.
For `C[C@H](OC1CCC1)[C@@H](O)c1cnc2c(cnn2-c2ccc(C(=O)O)cc2)c1` [Compound 108D] the same measures were below 100 nM and 100 to 1000 nM.
In the same order, the values of `CCC1(OC[C@@H](O)c2cnc3c(cnn3-c3ccc(C(=O)O)cc3)c2)CC1` [Compound 93B] are below 100 nM and below 100 nM.
At 15-PGDH/HPGD, `CCNCC(O)c1cnc2c(cnn2-c2cccc(-c3nnc[nH]3)c2)c1` (stereo not shown) [Compound 21] registered an IC50 of at least 1000 nM. The compound further gave an EC50 in the assay with A549 (Homo sapiens, A549, A549) of at least 1000 nM.
`O[C@H](c1cnc2c(cnn2-c2cccc(-c3nnc[nH]3)c2)c1)[C@@H]1CCOC1` [Compound 68D] gave an IC50 at 15-PGDH/HPGD below 100 nM. In the assay on A549 (Homo sapiens, A549, A549), this compound had an EC50 of 100 to 1000 nM.
For `O[C@@H](c1cnc2c(cnn2-c2cccc(-c3nnc[nH]3)c2)c1)C1CCOCC1` [Compound 52B] the same measures were below 100 nM and below 100 nM.
For `O=C(O)c1ccc(-n2ncc3cc([C@H](O)COCC4(C(F)(F)F)CC4)cnc32)cc1` [Compound 113B] the same measures were below 100 nM and 100 to 1000 nM.
In the same order, the values of `CC(C)(OCC(F)F)[C@H](O)c1cnc2c(cnn2-c2cccc(-c3nnc[nH]3)c2)c1` [Compound 61B] are at least 1000 nM and 100 to 1000 nM.
For the compound `O[C@@H](c1cnc2c(cnn2-c2cccc(-c3nnc[nH]3)c2)c1)[C@@H]1CCOC1` [Compound 68A], at 15-PGDH/HPGD, the IC50 is below 100 nM. Also, the EC50 in the assay with A549 (Homo sapiens, A549, A549) is below 100 nM.
`CC(C)OCC(O)c1cnc2c(cnn2-c2cccc(-c3nnc[nH]3)c2)c1` (single isomer, unassigned) [Compound 18A]: the IC50 against 15-PGDH/HPGD was below 100 nM. The compound further showed an EC50 in the assay with A549 (A549) below 100 nM.
For `COC(C)(C)CC[C@H](O)c1cnc2c(cnn2-c2cccc(-c3nnc[nH]3)c2)c1` [Compound 55A], the IC50 on 15-PGDH/HPGD is below 100 nM. The compound also gave an EC50 in the assay with A549 (Homo sapiens, A549, A549) of 100 to 1000 nM.
`CC(C)C[C@@H](O)[C@@H](O)c1cnc2c(ccn2-c2cccc(-c3nnc[nH]3)c2)c1` [Compound 3D, (1S,2R)-4-methyl-1-[1-[3-(4H-1,2,4-triazol-3-yl)phenyl]pyrrolo[2,3-b]pyridin-5-yl]pentane-1,2-diol]: on 15-PGDH/HPGD, the IC50 was below 100 nM. In the assay with A549 (A549), this compound gave an EC50 below 100 nM.
`CC(C)OC[C@H](O)c1cnc2c(ccn2-c2cccc(-c3nnc[nH]3)c2)n1` [Compound 20B]: on 15-PGDH/HPGD, the IC50 was below 100 nM. Also, the EC50 with A549 (Homo sapiens, A549, A549) lay within 100 to 1000 nM.
